# Source: US10005762B2, “Pyridine derivatives” (Astellas Pharma Inc., priority 2014, dated 2018)
# pIC50: −log10 of the molar value. Marks after values point to notes of the source that are not given here.
# Target: IRAP (Rattus norvegicus (Rat), UniProt P97629)
# Experiment: Inhibition of IRAP activity (AVP degradation, rat epididymal fat pad microsomes, MALDI-MS)
# Conditions: read-out: IRAP IC50, AVP 25 μM, 1 h at 37° C.
# Chain of IRAP (P97629 whole entry): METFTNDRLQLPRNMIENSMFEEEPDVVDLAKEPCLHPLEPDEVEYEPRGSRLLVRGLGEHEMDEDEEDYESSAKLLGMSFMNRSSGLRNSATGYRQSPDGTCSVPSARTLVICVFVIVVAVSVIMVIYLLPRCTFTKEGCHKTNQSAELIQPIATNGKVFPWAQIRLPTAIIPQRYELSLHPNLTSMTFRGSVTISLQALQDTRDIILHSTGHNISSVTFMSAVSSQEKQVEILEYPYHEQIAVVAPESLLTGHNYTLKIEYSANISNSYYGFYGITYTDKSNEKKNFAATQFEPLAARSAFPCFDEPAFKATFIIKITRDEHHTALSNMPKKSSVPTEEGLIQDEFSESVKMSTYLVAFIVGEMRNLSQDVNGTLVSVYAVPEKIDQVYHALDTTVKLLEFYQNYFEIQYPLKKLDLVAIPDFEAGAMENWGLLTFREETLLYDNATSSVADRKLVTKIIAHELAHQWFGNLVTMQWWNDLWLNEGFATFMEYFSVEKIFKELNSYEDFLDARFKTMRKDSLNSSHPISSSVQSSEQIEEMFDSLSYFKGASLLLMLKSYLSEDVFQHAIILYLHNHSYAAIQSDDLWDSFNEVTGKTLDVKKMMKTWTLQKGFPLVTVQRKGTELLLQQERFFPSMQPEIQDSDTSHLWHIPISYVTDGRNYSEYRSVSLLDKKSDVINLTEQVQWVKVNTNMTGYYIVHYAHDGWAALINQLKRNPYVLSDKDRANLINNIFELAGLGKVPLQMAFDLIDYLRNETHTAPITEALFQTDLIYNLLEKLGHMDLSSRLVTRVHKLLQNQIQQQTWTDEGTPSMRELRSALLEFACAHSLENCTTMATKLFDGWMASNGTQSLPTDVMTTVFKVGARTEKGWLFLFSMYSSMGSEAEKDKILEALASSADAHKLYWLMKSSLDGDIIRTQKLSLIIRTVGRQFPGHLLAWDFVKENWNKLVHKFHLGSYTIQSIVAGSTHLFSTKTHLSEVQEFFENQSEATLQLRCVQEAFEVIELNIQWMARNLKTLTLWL
row,pIC50,Compound
1,6.96,CC(C)C[C@H](N)[C@](O)(Cc1cc(C2=CCOCC2)ccn1)C(=O)O [Example 59]
2,6.66,CC(C)C[C@H](N)[C@](O)(Cc1nccc2c1CCC1(CCCC1)C2)C(=O)O [Example 19]
3,6.89,CC(C)C[C@H](N)[C@](O)(Cc1nccc2c1CCC(OCc1ccccc1)C2)C(=O)O (some centres unmarked) [Example 80]
4,6.89,COc1ccc(-c2ccnc(C[C@](O)(C(=O)O)[C@@H](N)CC(C)C)c2)cc1 [Example 57]
5,6.80,CC(C)C[C@H](N)[C@](O)(Cc1cc(C2CCOCC2)ccn1)C(=O)O [Example 78]

# Test system: water-loaded rats
# Experiment: Antidiuresis test in water-loaded rats (oral administration)
# Format: in vivo, rat
# Conditions: 1 mg/kg oral (values marked *); water load 30 ml/kg 1 h after dosing; urine volume 1 h after water loading; vs vehicle control
# Description: When a test compound is a free base, one molar equivalent hydrochloric acid was added to dissolve the compound in the solvent. Rats in a vehicle control group were administered only with the vehicle. One hour after the administration, 30 ml/kg of distilled water was orally administered to the rats. One hour after the water loading, the urine volume was measured (urine volumes less than 0.3 ml were considered as 0 ml) to calculate the ratio of the urine volume (urinary excretion rate) to the amount of water load.
row,Compound,Inhibition of urination (%)
1,CCCSC[C@H](N)[C@](O)(Cc1nccc2c1C[C@H](CCC1CC1)C2)C(=O)O [Example 42],81* %
2,CSC[C@H](N)[C@](O)(Cc1nccc2c1C[C@@H](CCC1CC1)C2)C(=O)O [Example 44],51* %
3,CSC[C@H](N)[C@](O)(Cc1nccc2c1C[C@H](CCC1CC1)C2)C(=O)O [Example 41],69* %

# Same assay, conditions: 3 mg/kg oral; water load 30 ml/kg 1 h after dosing; urine volume 1 h after water loading; vs vehicle control
row,Compound,Inhibition of urination (%)
1,CC(C)C[C@H](N)[C@](O)(Cc1nccc2c1C[C@H](CCC1CC1)C2)C(=O)O [Example 52],90
2,Cc1cnc(C[C@](O)(C(=O)O)[C@@H](N)COCCC2CC2)cc1CCCC1CC1 [Example 25],88
3,N[C@@H](CCC1CC1)[C@](O)(Cc1cc(CCCC2CC2)ccn1)C(=O)O [Example 40],100
